Results as given in patent publication US10695331B2, “Veterinary composition comprising imidacloprid, moxidectin and praziquantel for cutaneous topical application (spot on), for the treatment and prevention of ecto and endoparasitoses affecting dogs” (LABYES USA, LLC, priority 2016, dated 2020).
Like-named read-outs stand apart in the source and are kept apart here. One block for each compound: values may come before it.

What was measured:
[1] = pigs; cited from earlier work
[2] = dogs; cited from earlier work
[3] = sheep; cited from earlier work
[4] = in vivo; cited from earlier work
[5] = oral, 0.5 and 2.0 mg/kg/12 hours, 36 days; increase of four times the original dose; cited from earlier work
[6] = cows; cited from earlier work
[7] = subcutaneous administration, 5 mg/kg, Xie et al. 2011; cited from earlier work
in vivo = settings: dog
Procedure: In a period not longer than 2 hours, all of the samples were sent to the Laboratory, where they were centrifuged, and their plasma separated and frozen to −20° C. until the samples were quantified.

[8] = cited from earlier work
[9] = percutaneous, dogs (Sarasola, 2002); cited from earlier work
[10] = percutaneous, cats (Sarasola, 2002); cited from earlier work
[11] = Plasma concentrations of Praziquantel

SMILES: CO/N=C1\C[C@]2(C[C@@H]3C[C@@H](C/C=C(\C)C[C@@H](C)/C=C/C=C4\CO[C@@H]5[C@H](O)C(C)=C[C@@H](C(=O)O3)[C@]45O)O2)O[C@H](/C(C)=C/C(C)C)[C@H]1C [Moxidectin]
half-life of elimination [1]: 12 h | half-life of elimination [2]: 43.2 h | half-life of elimination [3]: 64.8 h | time of plasma spikes [4]: 3 to 5 h | average increase of the concentrations in plasma [5]: more than 8 times | half-life of elimination [6]: 67.2 h

Plasma concentrations of Praziquantel (in vivo; 0 h): 0.0 ng/mL | time up to which plasma concentrations are detectable (in vivo; 14.5 mg/kg): up to 48 hours | concentration at 0 h (in vivo; [11]): 0 ng/mL | concentration at 6 h (in vivo; [11]): 63.7 ng/mL | AUC/inf, Max (in vivo; topical or ocular, 14.5 mg/kg): 1321 | AUC/inf, Min (in vivo; topical or ocular, 14.5 mg/kg): 626.6 | CMAX, Min (in vivo; topical or ocular, 14.5 mg/kg): 38.6 ng/mL | TMAX, Min (in vivo; topical or ocular, 14.5 mg/kg): 4 h | Tmax (in vivo; topical or ocular, 14.5 mg/kg): 4 h | AUC (in vivo; topical or ocular, 14.5 mg/kg, AUC/inf, Median): 997 ng·h/mL | Cmax (in vivo; topical or ocular, 14.5 mg/kg, Max): 77.6 ng/mL | Cmax (in vivo; topical or ocular, 14.5 mg/kg, Median): 53.9 ng/mL | Tmax (in vivo; topical or ocular, 14.5 mg/kg, TMAX): 6 h | Tmax (in vivo; topical or ocular, 14.5 mg/kg, TMAX, Median): 5 h | Tmax (in vivo; topical or ocular, 14.5 mg/kg, Tmax range): 4 to 6 h
SMILES: O=C(C1CCCCC1)N1CC(=O)N2CCc3ccccc3C2C1 (stereo not shown) [Praziquantel]
Cmax [7]: 47.82 ng/mL | Tmax [7]: 1.45 h | plasma values after 48 hours [7]: below 10 ng/ml | part of an oral dose excreted with no changes ([8]; oral dose): less than 1% | concentration in tissues and plasma ([8]; up to): 14-20%

SMILES: CO[C@H]1C[C@H](O[C@@H]2/C(C)=C/C[C@@H]3C[C@@H](C[C@]4(CC[C@H](C)[C@@H](C5CCCCC5)O4)O3)OC(=O)[C@@H]3C=C(C)/C(=N/O)[C@H]4OC/C(=C\C=C\[C@@H]2C)[C@]43O)O[C@@H](C)[C@@H]1O [Selamectin]
bioavailability [9]: 4% | bioavailability [10]: 74%
